From US20080038728A1, “Quadruple Transformed Cell Line Useful for the Identification of Transport Inhibitors” (priority 2004, published 2008)

Assays:
[1] = tested on: ABCC2 together with OATP1B1, OATP1B3, and OATP2B1; test: Transport studies (transcellular transport, intracellular accumulation) in all double- and quadruple-transfected MDCKII cells; format: in vitro ADME, human; settings: all 3 double-transfected and quadruple-transfected MDCKII cells, 5 μM BSP 15 min, 1 μM E3S, 0.5 μM Fluva in basolateral compartment
Protocol: (§1) (a) MDCKII cells were grown on ThinCerts (24-mm diameter, pore size 0.4 μm, pore density 1×10^8 per cm^2) and induced with butyrate as mentioned above. The cells were washed in prewarmed (37° C.) transport buffer (142 mM NaCl, 5 mM KCl, 1 mM KH2PO4, 1.2 mM MgSO4, 1.5 mM CaCl2, 5 mM glucose, and 12.5 mM HEPES, pH 7.3). The ^3H-labeled substrate was dissolved in transport buffer and added either to the apical or to the basolateral compartment at the concentration indicated. After incubation at 37° C., the radioactivity in the opposite compartment was measured by sampling aliquots from the apical or basolateral compartment. Cells were washed 2 times with ice-cold transport buffer containing 0.5% bovine serum albumin and 3 times in ice-cold transport buffer. Intracellular accumulation of radioactivity was calculated by lyzing the cells with 0.2% sodium dodecyl sulfate (SDS) and measuring the radioactivity in the lysate.
(b) Transport assays were further carried out as described in Cui et al., Mol. Pharmacol. 60 (2001), 934-43. The apical localization of MRP2 and the basolateral expression of OATP1B1, OATP1B3 and OATP2B1 in the quadruple transfectants was shown by the generation of polar proliferation of the cells after initial growing on Transwell membrane inserts (24 mm diameter, […] pore size, Corning Costar) and by use of confocal laser scanning microscopy. […]

ABCC2 [2] = target: T1, ABCC2 (Homo sapiens, UniProt Q92887); settings: MDCK
Protocol: ATP-dependent transport into inside-out membrane vesicles prepared from MDCKII-ABCC2 single-transfectants (ABCC2, closed circles) or vector-transfected MDCKII cells (Control, open circles) was measured for 1, 3, and 5 min as described in Example 1. Data are means ±SD determined from 3 measurements.
Transport of estrone 3-sulfate into inside-out membrane vesicles was performed using nick spin columns as described (Keppler et al., 1998). Membrane vesicles were prepared from MDCKII vector-transfected control cells and MDCKII-ABCC2 single transfected cells described by Cui et al. (1999) and Letschert et al. (2005). ATP-dependent transport was determined by subtracting values obtained in the presence of 5′-AMP from those in the presence of ATP.

ABCC2 [3] = target: T1, ABCC2; parameters: expressed in transfected cells; host or cells: MDCKII-ABCC2 single-transfected cells (membrane vesicles); settings: BSP: Cui et al., 2001; CCK-8: Letschert et al., 2005; cited from earlier work
MDCKII cell clones = test: Transcellular leakage of [3H]inulin across MDCKII cell monolayers; format: in vitro ADME, canine; settings: 1 μM [3H]inulin in basolateral compartment, apical radioactivity after 30 min; all MDCKII cell clones
Protocol: The transcellular leakage was determined by addition of 1 μM [^3H]inulin to the basolateral compartment and measurement of the radioactivity appearing in the apical compartment after an incubation period of 30 min. The transcellular leakage was 1-2% of the radioactivity added for all MDCKII cell clones examined in this study.

[4] = tested on: OATP1B1, OATP1B3, and OATP2B1; test: Uptake (intracellular accumulation) kinetics in ABCC2/OATP1B1/1B3/2B1 quadruple-transfected MDCKII cells; format: in vitro ADME, human; settings: human, pH 7.3, cell line ABCC2-OATP1B1/1B3/2B1 (quadruple-transfectant); intracellular accumulation of 3H-labeled substrate; read-out: Km
Protocol: as §1

OATP1B3 = target: T2, OATP1B3 (Homo sapiens, UniProt Q9NPD5); test: Uptake (intracellular accumulation) kinetics in ABCC2/OATP1B3 double-transfected MDCKII cells; format: in vitro ADME; parameters: expressed in transfected cells; host or cells: MDCKII (canine kidney), co-expressing ABCC2; settings: cell line ABCC2-OATP1B3, intracellular accumulation of 3H-labeled substrate
T2 sequence (Q9NPD5 1-702): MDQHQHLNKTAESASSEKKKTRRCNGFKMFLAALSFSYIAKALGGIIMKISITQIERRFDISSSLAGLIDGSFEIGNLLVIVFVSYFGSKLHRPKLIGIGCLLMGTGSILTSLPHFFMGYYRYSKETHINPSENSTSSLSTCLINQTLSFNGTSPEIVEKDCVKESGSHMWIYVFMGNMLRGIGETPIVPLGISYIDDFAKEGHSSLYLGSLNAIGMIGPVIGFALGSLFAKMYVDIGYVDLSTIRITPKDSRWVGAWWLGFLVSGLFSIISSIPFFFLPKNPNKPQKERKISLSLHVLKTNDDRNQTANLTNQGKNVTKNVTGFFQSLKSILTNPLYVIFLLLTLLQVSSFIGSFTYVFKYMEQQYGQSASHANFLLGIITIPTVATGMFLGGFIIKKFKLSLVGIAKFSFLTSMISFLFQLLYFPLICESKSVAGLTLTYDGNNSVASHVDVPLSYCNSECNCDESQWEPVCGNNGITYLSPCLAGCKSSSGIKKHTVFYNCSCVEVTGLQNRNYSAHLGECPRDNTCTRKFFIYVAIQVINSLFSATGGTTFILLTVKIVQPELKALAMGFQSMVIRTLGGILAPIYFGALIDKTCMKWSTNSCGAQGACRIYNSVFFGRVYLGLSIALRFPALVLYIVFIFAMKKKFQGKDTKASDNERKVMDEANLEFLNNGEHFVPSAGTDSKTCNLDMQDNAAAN
Protocol: as §1

OATP2B1 = target: T3, OATP2B1 (Homo sapiens, UniProt O94956); test: Uptake (intracellular accumulation) kinetics in ABCC2/OATP2B1 double-transfected MDCKII cells; format: in vitro ADME; parameters: expressed in transfected cells; host or cells: MDCKII (canine kidney) ABCC2 single-transfectant, further transfected with pcDNA3.1/Hygro(-)-OATP2B1; settings: human, MDCKII cells double-transfected with ABCC2 and OATP2B1, pH 7.3; cell line ABCC2-OATP2B1; intracellular accumulation of 3H-labeled substrate; 5-min uptake
T3 sequence (O94956 1-709): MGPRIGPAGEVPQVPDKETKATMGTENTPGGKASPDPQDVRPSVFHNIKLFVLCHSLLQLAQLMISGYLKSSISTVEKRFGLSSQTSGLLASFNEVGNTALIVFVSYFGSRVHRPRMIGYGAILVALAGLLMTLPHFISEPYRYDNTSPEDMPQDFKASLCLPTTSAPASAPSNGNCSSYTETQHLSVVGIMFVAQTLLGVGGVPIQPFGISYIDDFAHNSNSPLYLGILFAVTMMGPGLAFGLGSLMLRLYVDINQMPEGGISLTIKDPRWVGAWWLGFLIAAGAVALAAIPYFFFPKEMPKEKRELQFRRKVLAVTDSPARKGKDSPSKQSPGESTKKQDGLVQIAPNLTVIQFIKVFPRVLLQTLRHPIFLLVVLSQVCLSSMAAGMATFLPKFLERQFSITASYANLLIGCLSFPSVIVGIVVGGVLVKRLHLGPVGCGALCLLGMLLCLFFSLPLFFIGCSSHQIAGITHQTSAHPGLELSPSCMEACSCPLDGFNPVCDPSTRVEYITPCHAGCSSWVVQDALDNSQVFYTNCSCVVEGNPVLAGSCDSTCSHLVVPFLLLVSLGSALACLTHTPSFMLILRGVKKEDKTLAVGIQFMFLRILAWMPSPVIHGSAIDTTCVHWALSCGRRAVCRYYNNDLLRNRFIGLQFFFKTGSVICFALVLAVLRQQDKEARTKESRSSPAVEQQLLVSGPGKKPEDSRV
Protocol: as §1, with “The cells were washed in prewarmed (37° C.) transport buffer (142 mM NaCl, 5 mM KCl, 1 mM KH2PO4, 1.2 mM MgSO4, 1.5 mM CaCl2, 5 mM glucose, and 12.5 mM HEPES, pH 7.3).” left out

[5] = substrate: CC(C)n1c(/C=C/C(O)CC(O)CC(=O)O)c(-c2ccc(F)cc2)c2ccccc21; test: cells, lysate or membranes named; settings: intracellular accumulation of 3H-labeled substrate, 5-min uptake, pH 7.3, 37.0 °C
[6] = substrate: O=C1OC(c2ccc(O)c(S(=O)(=O)O)c2)(c2ccc(O)c(S(=O)(=O)O)c2)c2c(Br)c(Br)c(Br)c(Br)c21; test: Uptake (intracellular accumulation) kinetics in ABCC2/OATP2B1 double-transfected MDCKII cells; format: in vitro ADME, human; settings: other: cell line ABCC2-OATP2B1; intracellular accumulation of 3H-labeled substrate; 5-min uptake; pH 7.3; 37.0 °C
Protocol: (§2) (a) MDCKII cells were grown on ThinCerts (24-mm diameter, pore size 0.4 μm, pore density 1×10^8 per cm^2) and induced with butyrate as mentioned above. […] The ^3H-labeled substrate was dissolved in transport buffer and added either to the apical or to the basolateral compartment at the concentration indicated. After incubation at 37° C., the radioactivity in the opposite compartment was measured by sampling aliquots from the apical or basolateral compartment. Cells were washed 2 times with ice-cold transport buffer containing 0.5% bovine serum albumin and 3 times in ice-cold transport buffer. Intracellular accumulation of radioactivity was calculated by lyzing the cells with 0.2% sodium dodecyl sulfate (SDS) and measuring the radioactivity in the lysate.

[7] = substrate: O=C1OC(c2ccc(O)c(S(=O)(=O)O)c2)(c2ccc(O)c(S(=O)(=O)O)c2)c2c(Br)c(Br)c(Br)c(Br)c21; test: Uptake (intracellular accumulation) kinetics in ABCC2/OATP1B1 double-transfected MDCKII cells; format: in vitro ADME, human; settings: other: cell line ABCC2-OATP1B1; intracellular accumulation of 3H-labeled substrate; 5-min uptake; pH 7.3; 37.0 °C
Protocol: as §2

T1 sequence (Q92887 whole entry): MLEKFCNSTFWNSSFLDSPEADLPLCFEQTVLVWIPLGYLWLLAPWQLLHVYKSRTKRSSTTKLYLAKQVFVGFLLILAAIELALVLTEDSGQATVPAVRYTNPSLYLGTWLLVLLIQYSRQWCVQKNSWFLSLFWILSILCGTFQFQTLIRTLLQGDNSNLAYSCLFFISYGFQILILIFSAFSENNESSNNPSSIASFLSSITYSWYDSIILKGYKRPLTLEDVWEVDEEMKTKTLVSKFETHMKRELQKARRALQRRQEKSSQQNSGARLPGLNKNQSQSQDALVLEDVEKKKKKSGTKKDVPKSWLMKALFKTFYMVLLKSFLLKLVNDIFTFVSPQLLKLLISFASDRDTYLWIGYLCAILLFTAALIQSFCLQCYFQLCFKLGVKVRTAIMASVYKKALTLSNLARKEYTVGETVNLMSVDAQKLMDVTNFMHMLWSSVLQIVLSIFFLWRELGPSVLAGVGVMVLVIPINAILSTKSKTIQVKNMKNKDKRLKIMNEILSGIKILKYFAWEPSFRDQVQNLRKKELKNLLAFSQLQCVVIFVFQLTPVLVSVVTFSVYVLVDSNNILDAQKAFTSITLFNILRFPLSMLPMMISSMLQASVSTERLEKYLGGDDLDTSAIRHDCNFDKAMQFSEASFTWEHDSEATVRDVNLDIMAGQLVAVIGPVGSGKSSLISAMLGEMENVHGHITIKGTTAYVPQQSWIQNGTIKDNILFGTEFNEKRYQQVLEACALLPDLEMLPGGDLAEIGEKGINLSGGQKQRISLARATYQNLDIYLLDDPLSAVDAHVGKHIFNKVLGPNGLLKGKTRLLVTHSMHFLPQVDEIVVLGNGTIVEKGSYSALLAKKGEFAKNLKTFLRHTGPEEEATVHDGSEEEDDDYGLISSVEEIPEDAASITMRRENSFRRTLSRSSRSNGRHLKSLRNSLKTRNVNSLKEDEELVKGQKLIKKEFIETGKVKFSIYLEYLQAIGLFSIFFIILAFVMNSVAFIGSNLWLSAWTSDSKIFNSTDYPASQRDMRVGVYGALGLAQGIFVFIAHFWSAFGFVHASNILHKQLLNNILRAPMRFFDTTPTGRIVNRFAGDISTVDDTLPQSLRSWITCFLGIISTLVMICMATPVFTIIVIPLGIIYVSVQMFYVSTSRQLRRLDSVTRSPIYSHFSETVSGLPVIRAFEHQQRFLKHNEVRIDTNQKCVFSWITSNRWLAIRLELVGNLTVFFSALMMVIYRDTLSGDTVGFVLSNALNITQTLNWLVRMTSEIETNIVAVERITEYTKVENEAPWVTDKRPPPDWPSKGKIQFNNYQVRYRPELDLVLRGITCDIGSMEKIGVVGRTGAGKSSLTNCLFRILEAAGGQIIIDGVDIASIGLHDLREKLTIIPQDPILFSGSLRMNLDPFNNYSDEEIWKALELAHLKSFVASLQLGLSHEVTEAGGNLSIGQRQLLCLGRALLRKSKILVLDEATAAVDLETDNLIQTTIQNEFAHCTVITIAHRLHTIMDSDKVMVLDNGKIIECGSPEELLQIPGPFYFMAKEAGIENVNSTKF

Molecule: C[C@]12CC[C@@H]3c4ccc(OS(=O)(=O)O)cc4CC[C@H]3[C@@H]1CCC2=O [estrone 3-sulfate]
- transcellular (vectorial) transport, basolateral to apical [1]: transported transcellularly
- transcellular (vectorial) transport, basolateral to apical ([1]; listed as [^3H]estrone 3-sulfate): detected
- ABCC2-mediated transport in the presence of ATP, enhanced compared to controls (ABCC2 [2]): 3.1 fold

Molecule: cholecystokinin-8 sulfate [CCK-8]
- Km (ABCC2 [3]): 8.1 µM

Molecule: inulin [[^3H]inulin]
- transcellular leakage (MDCKII cell clones): 1-2 % of the radioactivity added

Molecule: CC(C)n1c(/C=C/C(O)CC(O)CC(=O)O)c(-c2ccc(F)cc2)c2ccccc21 (centres unmarked) [Fluvastatin, fluvastatin]
- Km [4]: 2.3 µM
- substrate for ABCC2 (ABCC2 [2]; human): not a substrate for ABCC2
- Vmax (OATP1B3): 53.6 ± 11.0 pmol · mg protein^−1 · min^−1
- Km at 5 min (OATP1B3; human, MDCKII cells double-transfected with ABCC2 and OATP1B3, pH 7.3, 5-min uptake, read-out: Km): 7 ± 2.5 µM
- Km at 5 min (OATP2B1): 0.7 µM

B1: OATP2B1 (Homo sapiens) (protein)
chain: T3 sequence (O94956 1-709)
notes: expressed in transfected cells; host or cells: MDCKII (canine kidney) ABCC2 single-transfectant, further transfected with pcDNA3.1/Hygro(-)-OATP2B1
- Km ([5]; other: cell line ABCC2-OATP2B1): 0.7 ± 0.3 µM
- Vmax ([5]; other: cell line ABCC2-OATP2B1): 23.0 ± 2.6 pmol · mg protein^−1 · min^−1
- Km [6]: 3.4 µM

B2: OATP1B1 (Homo sapiens) (protein)
chain: MDQNQHLNKTAEAQPSENKKTRYCNGLKMFLAALSLSFIAKTLGAIIMKSSIIHIERRFEISSSLVGFIDGSFEIGNLLVIVFVSYFGSKLHRPKLIGIGCFIMGIGGVLTALPHFFMGYYRYSKETNINSSENSTSTLSTCLINQILSLNRASPEIVGKGCLKESGSYMWIYVFMGNMLRGIGETPIVPLGLSYIDDFAKEGHSSLYLGILNAIAMIGPIIGFTLGSLFSKMYVDIGYVDLSTIRITPTDSRWVGAWWLNFLVSGLFSIISSIPFFFLPQTPNKPQKERKASLSLHVLETNDEKDQTANLTNQGKNITKNVTGFFQSFKSILTNPLYVMFVLLTLLQVSSYIGAFTYVFKYVEQQYGQPSSKANILLGVITIPIFASGMFLGGYIIKKFKLNTVGIAKFSCFTAVMSLSFYLLYFFILCENKSVAGLTMTYDGNNPVTSHRDVPLSYCNSDCNCDESQWEPVCGNNGITYISPCLAGCKSSSGNKKPIVFYNCSCLEVTGLQNRNYSAHLGECPRDDACTRKFYFFVAIQVLNLFFSALGGTSHVMLIVKIVQPELKSLALGFHSMVIRALGGILAPIYFGALIDTTCIKWSTNNCGTRGSCRTYNSTSFSRVYLGLSSMLRVSSLVLYIILIYAMKKKYQEKDINASENGSVMDEANLESLNKNKHFVPSAGADSETHC
notes: expressed in transfected cells; host or cells: MDCKII (canine kidney), co-expressing ABCC2
- Km ([5]; other: cell line ABCC2-OATP1B1): 2.4 ± 0.9 µM
- Vmax ([5]; other: cell line ABCC2-OATP1B1): 43.4 ± 6.7 pmol · mg protein^−1 · min^−1
- Km [7]: 2.4 µM
- Vmax [7]: 41.5 ± 5.2 pmol · mg protein^−1 · min^−1
